Reference: patent US20260335320A1, “ANTI-VIRULENCE AGENTS AND METHODS FOR THE TREATMENT OF PATHOGENIC BACTERIUM” (priority 2023, published 2026)
Like-named read-outs stand apart in the source and are kept apart here.

How the values were obtained:
B. thailandensis = assay: microbe, parasite or virus in culture; type: cell-based
[1] = tested on: P. aeruginosa strain PA14; assay: P. aeruginosa-induced cytotoxicity of A549 cells (LDH release); details: 25 μM, 5.5 hours
[2] = tested on: Burkholderia FixLJ pathway (Fix-GFP reporter in B. multivorans strain VC7102); assay: Fix-GFP reporter activation screen (GFP fluorescence)
Mycobacterium abscessus = assay: Intracellular invasion/survival in THP-1-derived macrophages; type: cell-based; details: 25 μM, 2 h plus 2 h with amikacin
Procedure: FIG. 9. BFA compounds reduce the virulence of M. abscessus. FIG. 9 provides a graph showing the results after THP-1-derived macrophages were infected with ~5×10^5 CFU/M. abscessus strain ATCC19977 and 25 μM of the indicated BFA or DMSO vehicle control for 2 hours. Cells were washed and treated with the same BFA and 500 μg/mL amikacin (to kill extracellular bacteria) for 2 hours.
To determine whether BFA compounds could inhibit the virulence of Mycobacterium abscessus THP-1-derived macrophages were used.

B. dolosa strain AU0158 = assay: Invasion of and/or intracellular survival in THP-1-derived macrophages, antibiotic exclusion assay; type: cell-based, B. dolosa strain AU0158 (in human THP-1-derived macrophages)
B. multivorans = assay: Invasion/intracellular survival in THP-1-derived macrophages; type: cell-based; details: 4 h
B. cenocepacia = assay: as above; type: cell-based; details: 4 h

## Cc1ccccc1-n1c(/C=C/c2ccc(N(C)C)cc2)nc2ccccc2c1=O [BFA6, 2-[(1E)-2-[4-(DIMETHYLAMINO)PHENYL]ETHENYL]-3-(2-METHYLPHENYL)-3,4-DIHYDROQUINAZOLIN-4-ONE]
B. thailandensis
  inhibition of invasion/survival of B. thailandensis: able to inhibit the invasion/survival of B. thailandensis
[1]
  inhibition of PA14-induced cytotoxicity: able to significantly reduce cytotoxicity

## NC(CO)C(=O)NNCc1ccc(O)c(O)c1O (centres unmarked) [Benserazide, benserazide]
[2]
  GFP activity above the mean of the negative control (DMSO): more than 3 standard deviations

## CCCCN(C)CCCNC(=O)Cn1ncc2c3ccccc3n(Cc3cccc(Cl)c3)c2c1=O [BFA7, N-{3-[Butyl(Methyl)Amino]Propyl}-2-{5-[(3-Chlorophenyl)Methyl]-4-Oxo-3h,4h,5h-Pyridazino[4,5-B]Indol-3-Yl}Acetamide]
Mycobacterium abscessus
  inhibition of intracellular invasion/survival of M. abscessus: able to inhibit the intracellular invasion/survival within the macrophages
[1]
  inhibition of PA14-induced cytotoxicity: able to significantly reduce cytotoxicity

## CCCCCCc1cc2cc(-c3nnc(-c4ccc(C)cc4)o3)c(=O)oc2cc1O [BFA1, 6-HEXYL-7-HYDROXY-3-[5-(4-METHYLPHENYL)-1,3,4-OXADIAZOL-2-YL]-2H-CHROMEN-2-ONE]
B. dolosa strain AU0158
  inhibition of invasion/survival of B. dolosa in macrophages: inhibited virulence at a lower concentration and at a greater magnitude than the other BFA compounds
B. dolosa strain AU0158; for BFA 2-8 at highest dose tested
  inhibition of invasion/survival of B. dolosa in macrophages: ~ 75%
B. multivorans; 25 μM, THP-1-derived macrophages
  inhibition of invasion/survival of B. multivorans: inhibited the invasion/survival of all three additional Burkholderia species
B. multivorans; Burkholderia multivorans, Macrophage, read-out: dose inhibiting invasion/survival of B. multivorans
  minimal effective concentration: 6.25 µM
B. cenocepacia; 25 μM
  inhibition of invasion/survival of B. cenocepacia: able to inhibit the invasion/survival of B. cenocepacia
B. cenocepacia; dose range, compared with 6.25 μM
  dose needed to inhibit B. cenocepacia: higher doses were needed to inhibit B. cenocepacia
B. thailandensis; 25 μM, 4 h
  inhibition of invasion/survival of B. thailandensis: able to inhibit the invasion/survival of B. cenocepacia (FIG. 3B) and B. thailandensis
B. thailandensis; Burkholderia thailandensis, Macrophage, 2 h, read-out: dose inhibiting invasion/survival of B. thailandensis
  minimal effective concentration: 6.25 µM
Mycobacterium abscessus
  inhibition of intracellular invasion/survival of M. abscessus: able to inhibit the intracellular invasion/survival within the macrophages

## CCc1ccccc1N1CC(c2nc3ccccc3n2CCCCOc2ccccc2)CC1=O (centres unmarked) [BFA3, 1-(2-ETHYLPHENYL)-4-[1-(4-PHENOXYBUTYL)-1H-1,3-BENZODIAZOL-2-YL]PYRROLIDIN-2-ONE]
Mycobacterium abscessus
  inhibition of intracellular invasion/survival of M. abscessus: able to inhibit the intracellular invasion/survival within the macrophages
[1]
  inhibition of PA14-induced cytotoxicity: able to significantly reduce cytotoxicity

## COCCNC(=O)CCn1c(=O)c2cc(OC)c(OC)cc2n(CC(=O)Nc2ccccc2OC)c1=O [BFA2, 3-(6,7-Dimethoxy-1-{[(2-Methoxyphenyl)Carbamoyl]Methyl}-2,4-Dioxo-1,2,3,4-Tetrahydroquinazolin-3-Yl)-N-(2-Methoxyethyl)Propanamide]
Mycobacterium abscessus
  inhibition of intracellular invasion/survival of M. abscessus: able to inhibit the intracellular invasion/survival within the macrophages
